# Data reported in patent publication US8497255B2, “Phosphonic acids as S1P receptor modulators” (Allergan, Inc., priority 2010, dated 2013).
# Molecular target: T1, human S1P1 receptor (Homo sapiens, UniProt P21453)
# T1 construct: expressed in transfected cells; membranes used
# Test: GTP γ35S binding assay for S1P1 activity
# Assay type: biochemical
# Conditions: activity potency, S1P1 receptor from GTP γ35S binding; membranes, 30 min at 25° C.
# Protocol: Compounds were synthesized and tested for S1P1 activity using the GTP γ^35S binding assay. These compounds may be assessed for their ability to activate or block activation of the human S1P1 receptor in cells stably expressing the S1P1 receptor.
# GTP γ^35S binding was measured in the medium containing (mM) HEPES 25, pH 7.4, MgCl2 10, NaCl 100, dithitothreitol 0.5, digitonin 0.003%, 0.2 nM GTP γ^35S, and 5 μg membrane protein in a volume of 150 μl. Test compounds were included in the concentration range from 0.08 to 5,000 nM unless indicated otherwise. Membranes were incubated with 100 μM 5′-adenylylimmidodiphosphate for 30 min, and subsequently with 10 μM GDP for 10 min on ice. Drug solutions and membrane were mixed, and then reactions were initiated by adding GTP γ^35S and continued for 30 min at 25° C. Reaction mixtures were filtered over Whatman GF/B filters under vacuum, and washed three times with 3 mL of ice-cold buffer (HEPES 25, pH7.4, MgCl2 10 and NaCl 100). Filters were dried and mixed with scintillant, and counted for ^35S activity using a β-counter. Agonist-induced GTP γ^35S binding was obtained by subtracting that in the absence of agonist. Binding data were analyzed using a non-linear regression method. In case of antagonist assay, the reaction mixture contained 10 nM S1P in the presence of test antagonist at concentrations ranging from 0.08 to 5000 nM.
# T1 sequence (P21453 whole entry): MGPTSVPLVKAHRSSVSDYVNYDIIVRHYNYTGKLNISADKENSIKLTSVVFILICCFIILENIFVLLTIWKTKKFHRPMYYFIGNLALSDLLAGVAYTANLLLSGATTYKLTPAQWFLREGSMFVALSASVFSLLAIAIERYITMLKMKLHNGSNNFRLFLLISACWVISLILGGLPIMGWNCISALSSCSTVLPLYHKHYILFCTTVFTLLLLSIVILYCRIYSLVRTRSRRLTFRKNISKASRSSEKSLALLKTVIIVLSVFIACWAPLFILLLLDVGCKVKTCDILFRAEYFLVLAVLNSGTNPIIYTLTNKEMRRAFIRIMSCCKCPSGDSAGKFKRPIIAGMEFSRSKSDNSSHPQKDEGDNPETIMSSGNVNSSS
row,EC50,SMILES
1,3.14 nM,"CC(C)Oc1ccc(-c2nc(-c3ccc(CNCCCP(=O)(O)O)cc3)no2)cc1C(F)(F)F [Compound 1, {3-[(4-{5-[4-isopropoxy-3-(trifluoromethyl)phenyl]-1,2,4-oxadiazol-3-yl}benzyl)amino]propyl}phosphonic acid]"
2,1.78 nM,"CC(C)Cc1ccc(-c2nc(-c3ccc(CNCCCP(=O)(O)O)cc3)no2)cc1 [Compound 3, (3-{4-[5-(4-Isobutyl-phenyl)-[1,2,4]oxadiazol-3-yl]-benzylamino}-propyl)-phosphonic acid]"
3,3.1 nM,"CC(C)Oc1ccc(-c2nc(-c3ccc(CNCCCP(=O)(O)O)cc3)no2)cc1Br [Compound 2, [3-({4-[5-(3-bromo-4-isopropoxyphenyl)-1,2,4-oxadiazol-3-yl]benzyl}amino)propyl]phosphonic acid]"
